# Reference: US9688620B2, “Methods for treating fibromyalgia syndrome” (SK Biopharmaceuticals Co., Ltd., priority 2009, dated 2017)
# Assays:
# [1] = test system: littermate wild-type mice; experiment: Sleep parameters (EEG/EMG polygraph) in littermate wild-type mice; assay type: in vivo; conditions: for wake-promoting effects: resting period (dosed PO at ZT 2); for duration of continuous wakefulness: most wild-type mice
# Text: (§1) The polygraph signal (EEG and EMG) was captured with SleepSign (Kissel Comtech), and the sleep stage was visually scored with 10 sec epoch for wakefulness, non-REM sleep and REM sleep. Scoring criteria are: Wakefulness is characterized by desynchronized low-amplitude, mixed frequency (>4 Hz) EEG and high EMG activity. Rhythmic alpha (8-9 Hz) wave (with high EMG activities) may also appear. Non-REM is characterized by synchronized, high-amplitude, low-frequency (0.25-4 Hz) with reduced EMG activity (compared to wakefulness). EEG activity in REM sleep is similar to that in wakefulness, with desynchronized, mixed frequency low amplitude waves. Rhythmic alpha (8-9 Hz) wave with reduced EMG activities may also appear. […] activity during REM sleep is reduced even further and in many cases, completely absent. Some muscle twitching may be apparent in the EMG trace during REM sleep.
# (§2) Three drug doses of the test compound (50, 100 and 150 mg/kg PO) plus vehicle, was orally administered at ZT 2 (2 hours after light on) or ZT 14 (2 hours after light off), and the effects on sleep was monitored for 6 hours after the drug administration (the sleep data was collected for 30 hours after the drug injection, and are available for further analysis). The doses for modafinil were 50 and 200 mg/kg PO (plus vehicle), and modafinil was also administered at ZT 2 and ZT14.
# (§3) If the polygraph signals of some mice were not sufficient to score the sleep stage with accuracy (especially bad EMG), data from these animals were excluded, and the minimum of 5 animals (except for the highest dose of the test compound in wild-type mice in dark period, n=4) were included for the data analysis and number of animals were indicated in the figures.
# (§4) Effects of test compound and modafinil on the amount of wake, non-REM sleep, REM sleep (cumulative seconds), number of episodes for each sleep stage during 6 hours, mean wake/sleep-bout lengths (seconds) were analyzed in each animal and the mean of each parameter was calculated in each genotype. The effects of compounds on wake and sleep amounts are useful to evaluate the wake promoting potency, and the number of episodes for each sleep stage and the mean wake/sleep bout length are parameters for evaluating the sleep fragmentation. Amphetamine and modafinil, two main wake-promoting compounds currently used for the treatment of EDS associated with various etiologies (narcolepsy, idiopathic hypersomnia and secondary EDS), are known to increase wake time and prolong wake bout length in normal and EDS conditions.
# (§5) A comparison of the effects between hypocretin deficient and wild-type mice is very useful in determining if the wake-promotion of the test compound is dependent on the availability of hypocretins, and if there is a possible change in the sensitivity of the receptive mechanisms of test compound in narcoleptic mice due to the hypocretin ligand deficiency.
# [2] = test system: hypocretin cell ablated narcoleptic mice (prepororexin/ataxin-3 transgenic); experiment: Sleep parameters (EEG/EMG polygraph) in narcoleptic mice; assay type: in vivo; conditions: for wake-promoting effects (magnitude): active (dark) period; for wakefulness (dose dependence): active period (dosed PO at ZT 14); for wake-promoting effects: resting period (dosed PO at ZT 2); for duration of continuous wakefulness: most narcoleptic mice
# Text: as §1, §2, §3, §4, §5
# Male CD-1 mice = experiment: Forced swimming test in mice; assay type: in vivo; conditions: for mean duration of immobility: mice
# Method: (§6) Male CD-1 mice (16-24 g) and male Wistar rats (90-125 g) were utilized in these experiments. The test compound (10, 15 and 30 mg/kg) was dissolved in physiological saline (0.9%) and administered orally PO in a volume of 1 mL/100 g body weight.
# (§7) Mice and rats were placed in glass cylinders (1000 ml beakers; height 14 cm, diameter 11.5 cm) and (4000 ml beakers; height 24.5 cm, diameter 18.0 cm) respectively, containing water (25 degrees Celsius) up to a height of 9.0 cm for mice and 19.0 for rats. […] Immobility was defined as lack of movement, such as floating in the water with little or no movement of hind legs. Duration of immobility was timed with a stopwatch and recorded. In some experiments, mice or rats were allowed to swim for 6 or 10 minutes, respectively, one day prior to the forced swimming experiment.
# (§8) In the single dose test, mice or rats were given test compound or 0.9% NaCl and placed in glass cylinders 1 hour or 4 hours post-treatment, respectively. In the multiple dose experiments, mice were dosed twice a day for 3 days and given an additional dose on Day 4. In addition, the mice were placed in the glass cylinders containing water at 25 degrees Celsius and allowed to swim for six minutes on Day 3. Statistical evaluation was performed using a computer program based on probit analysis. Statistical significance was determined using Student's t-test at a P value of <0.05.
# male Wistar rats = experiment: Forced swimming test in rats; assay type: in vivo; conditions: 4 hours post-treatment
# Method: as §6, §7, §8
# [3] = test system: rats with sciatic nerve ligation; experiment: Thermal hyperalgesia (hindpaw withdrawal latency, plantar tester) in rats with sciatic nerve ligation; assay type: in vivo, Sprague-Dawley rats; conditions: 30 mg/kg IP; for mean paw withdrawal latency: n = 6
# Method: Young adult male Sprague-Dawley rats (CD(SD)IGS, 150-200 g) were initially anesthetized with isoflurane in O2 by a mask and the surgical procedure was performed according to the method described by Bennett and Xie (1988). Briefly, the right sciatic nerves were loosely tied using ligatures. All experiments were conducted in accordance with the guidelines of the International Association for the Study of Pain. The behavioral tests were conducted at least 14 days postoperatively.
# The test compound was dissolved in saline and administered intraperitoneally at 30 mg/kg to animals in a volume of 3 mL/kg body weight.
# To test for thermal hyperalgesia, the thermal response was determined by the hindpaw withdrawal latency, using a plantar tester (UGO BASILE, Italy), and a modified method of Hargreaves et al. (1988). Rats were allowed to acclimate within plastic enclosures on a clear glass plate maintained at room temperature. A radiant heat source (intensity 90) was controlled with a timer and focused onto the plantar surface of the rat right hind paw encompassing the glabrous skin. Paw withdrawal stopped both heat source and timer. A maximal cut-off 30 sec was used to prevent tissue damage. Rats were assessed for thermal hyperalgesia predose (0 hr) and at 1, 4 and 8 hours after 30 mg/kg test compound administration.
# Data are expressed as mean±standard error of mean (SEM). The values of behavioral signs of neuropathic pain at various postoperative time points were compared with those of the preoperative control period by a repeated-measure One-way Analysis of Variance (followed by Dunnett's post-hoc test). P-values less than 0.05 were considered to be significant.
# [4] = resting period, genotypes not distinguished
compound,measurement,setting,value
"NC(=O)C[S+]([O-])C(c1ccccc1)c1ccccc1 (stereo not drawn) [modafinil, reference compound]",wake-promoting effects,[1]; wild-type mice,modest
same,wake amount,"[2]; 200 mg/kg (high dose), active period, narcoleptic mice",did not bring the wake amount to that of the wild-type baseline levels
same,wake-promoting effects (magnitude),[2]; narcoleptic mice,much weaker
same,wakefulness (dose dependence),[2]; narcoleptic mice,dose-dependently increase
same,dose of test compound to which the wake promoting effect of modafinil roughly corresponds,"[2]; modafinil 200 mg/kg PO, resting period, genotypes not distinguished",~50 mg/kg
same,wake-promoting effects,[2]; narcoleptic mice,modest
same,REM sleep,[2]; [4],did not strongly reduce REM sleep
"NC(=O)OC[C@H](N)Cc1ccccc1 [test compound, O-carbamoyl-(D)-phenylalaminol]",duration of continuous wakefulness,"[1]; 50 mg/kg PO, resting period",up to 3 hours
same,duration of continuous wakefulness,"[1]; 100 mg/kg PO, resting period",≤ 4 h
same,duration of continuous wakefulness,"[1]; 150 mg/kg PO, resting period",≤ 5 h
same,Non-REM and REM sleep during the period of continuous wakefulness,"[1]; 50, 100, 150 mg/kg PO, resting period, wild-type mice",completely suppressed
same,bouts of wakefulness,"[1]; 50-150 mg/kg PO, wild-type mice",significantly increased
same,wake-promoting effects (magnitude),"[1]; active (dark) period, wild-type mice, high baseline wakefulness",only small effects
same,wakefulness (dose dependence),"[1]; active period (dosed PO at ZT 14), wild-type mice",dose-dependently increased
same,wake-promoting effects,[1]; wild-type mice,Very potent
same,duration of continuous wakefulness,"[2]; 50 mg/kg PO, resting period",up to 3 hours
same,duration of continuous wakefulness,"[2]; 100 mg/kg PO, resting period",≤ 4 h
same,wake amounts,"[2]; 100 mg/kg, active period, narcoleptic mice",brought up to the levels of wild-type mice
same,duration of continuous wakefulness,"[2]; 150 mg/kg PO, resting period",≤ 5 h
same,wake amounts,"[2]; 150 mg/kg, active period, narcoleptic mice",brought up to the levels of wild-type mice
same,Non-REM and REM sleep during the period of continuous wakefulness,"[2]; 50, 100, 150 mg/kg PO, resting period, narcoleptic mice",completely suppressed
same,sleep patterns of narcoleptic mice,[2]; 50-150 mg/kg PO,normalize
same,bouts of wakefulness,"[2]; 50-150 mg/kg PO, narcoleptic mice",significantly increased
same,wake-promoting effects (magnitude),[2]; narcoleptic mice,much pronounced
same,wakefulness (dose dependence),[2]; narcoleptic mice,dose-dependently increased
same,amounts of non-REM and REM sleep,"[2]; active period, narcoleptic mice",brought down to the levels of wild-type mice
same,sleep that occurred after the prolonged wakefulness,"[2]; polygraphic assessments, resting period, genotypes not distinguished",normal
same,wake-promoting effects,[2]; narcoleptic mice,Very potent
same,REM sleep,[2]; [4],potently reduced
same,EEG patterns after administration,"[2]; resting period, wild-type and narcoleptic mice not distinguished",no abnormal EEG patterns
same,ED50,"Male CD-1 mice; Mus musculus, multiple dosing PO, mice (twice a day for 3 days plus a dose on Day 4), read-out: ED50 (reduction in mean immobility time)",5.5 mg/kg
same,mean duration of immobility,"Male CD-1 mice; multiple dosing 3 mg/kg PO, control 85 sec",63 s
same,mean duration of immobility,"Male CD-1 mice; multiple dosing 5 mg/kg PO, control 136 sec, significant",73 s
same,mean duration of immobility,"Male CD-1 mice; multiple dosing 8 mg/kg PO, control 114 sec, significant",39 s
same,mean duration of immobility,"Male CD-1 mice; single dose 10 mg/kg PO, control 131 sec",101 s
same,mean duration of immobility,"Male CD-1 mice; single dose 15 mg/kg PO, control 154 sec, significant",80 s
same,mean duration of immobility,"Male CD-1 mice; single dose 30 mg/kg PO, control 132 sec, significant",30 s
same,mean duration of immobility,"male Wistar rats; 10 mg/kg PO, control 74 sec, not statistically significant",62 s
same,mean duration of immobility,"male Wistar rats; 15 mg/kg PO, control 65 sec, not statistically significant",39 s
same,mean duration of immobility,"male Wistar rats; 30 mg/kg PO, control 38 sec, significant",9 s
same,mean paw withdrawal latency,[3]; 0 hr (predose baseline),5.17 s
same,mean paw withdrawal latency,"[3]; 1 hr post-injection, P < 0.01 vs 0 hr",6.33 s
same,mean paw withdrawal latency,"[3]; 4 hr post-injection, P < 0.05 vs 0 hr",6.06 s
same,mean paw withdrawal latency,[3]; 8 hr post-injection,5.63 s
same,paw withdrawal latency to a thermal stimulus (in words),[3]; vs pre-injection (0 hr) latency,significantly increased
same,% of Antagonism,[3]; 1 hr vs 0 hr latency,0.14**(22.3%
same,% of Antagonism,[3]; 4 hr vs 0 hr latency,0.21*(17.2%)
same,% of Antagonism,[3]; 8 hr vs 0 hr latency,0.16(8.8%)
